Entries after “also recorded” stand apart in the source; their conditions may differ.
Experiments:
[1] = tested on: F-DVS™ CH-N 19 (frozen LD-culture); assay: Acidifying activity assay of frozen concentrated F-DVS CH-N 19 culture; format: cell-based; conditions: Example 15; 1 day and 6 days at −50° C; 0,005% w/v inoculum, 6 hrs at 30° C; Na-formate 3% w/w
Experimental: The additives and concentrates were mixed for 30 minutes and subsequently 150 g of the two portions was frozen in liquid nitrogen. […] Culture activity in milk (heat sterilized LAB-milk) was measured.
The concentration of the various additives is given in the figures as % w/w per gram concentrated biomass.
Culture activity in milk (LAB-milk) was measured as acidification activity after 1 day (FIG. 13) and 6 days (FIG. 14) of storage at −50° C. The activity assay is based on a 0,005% w/v inoculum and 6 hrs incubation at 30° C.

bacterial cultures = assay: Cryoprotection of bacterial cultures, summary statements of the description; format: cell-based; conditions: summary of the experiments (examples 12 and 15 cited for adenosine)
[2] = tested on: freeze-dried LD-culture of Fl-Da N; assay: Acidifying activity assay of freeze-dried Fl-Da N culture (FD-DVS); format: cell-based; conditions: 3% w/w additive, 0.005% inoculum
Experimental: Frozen culture was inoculated on a 0.01% (w/w) level in 200 ml UHT-sterilized reconstituted skimmed milk (RSM) containing 9.5% (w/w) solid matter and heated at 99° C. for 30 minutes (LAB-milk). The RSM was incubated at 30° C. for 6 h to permit acidification of the substrate material. The acidification activity was measured as described in Example 6: Analytical Procedure QAm-052, “acidification activity—UHT”, Chr. Hansen A/S (Denmark).
(§1) The additive was added to the concentrate as a 30% sterile solution.
To simulate the situation encountered in the industrial situation during a freezing process, the additives and concentrates were mixed and stored for 5 hours at 8° C. and subsequently frozen in liquid nitrogen and further stored at −50° C. for one day before freeze-drying. After freeze-drying was completed the culture was stored at −50° C. until analysis. […] Culture activity in milk (LAB-rnilk) was measured after 7 days of storage at −50° C.
This example describes the stability of freeze-dried LDultures (FD-DVS) of Fl-Da-N formulated with and without a number of different additives, which may act as cryprotective agents. In the experiments the.concentration of the various additives were 3% w/w per gram concentrated biomass unless other vice indicated in the figures.
After fermentation, biomass was harvested and concentrated via centrifugation from fermentation broth of Fl-Da N as described in the Materials and Method section. The cell concentrate was divided into a number of portions and was added to each of the portions. To simulate the situation encountered in the industrial situation during a freezing process, the additives and concentrates were mixed and stored for 5 hours at 8° C. and subsequently frozen in liquid nitrogen and further stored at −50° C. for one day before freezedrying. After freeze-drying was completed the culture was stored at −50° C. until analysis. […] Culture activity in milk (LAB-milk) was measured by the acidifying activity assay after 1 day and after 2 months of storage at −50° C.

[3] = tested on: F-DVS™ Fl-Da N (frozen LD-culture); assay: Acidifying activity assay of frozen concentrated F-DVS Fl-Da N culture stored at −50° C; format: cell-based; conditions: 3% w/w additive; for reduction in stability of culture without additive relative to culture stabilized by additive / loss of acidification activity of culture without additive: 13 days at −50° C; for reduction in stability of culture without additive relative to culture stabilized by additive: 0.01% inoculum, pH after 6 hrs at 30° C; for loss of acidification activity of culture without additive: corresponds to the pH difference; for ranking as cryoprotective during prolonged storage: storage extended to 21 or 49 days at −50° C
Experimental: In this example the stability measured by the acidification activity of a commercially produced LD-culture: F-DVS™ FI-Da N (Chr. Hansen A/S Item. No. 501691) was followed over a period of 6 months. The culture was produced and stored at −50° C. as described in the Materials and Methods section.
In contrast to what is common the first activity-measurement in this example was performed immediately after the culture were frozen as pellets in liquid nitrogen and followed by measurements after 1, 2, 12, 20 and 188 days of storage at −50° C.
as §1
To simulate a situation similar to the industrial situation during the freezing process the additives and concentrates were mixed and stored for 5 hours at 8° C. and subsequently frozen in liquid nitrogen and further stored at −50° C. […] Culture activity in milk (LAB-milk) was measured the same day as the frozen cultures were formulated.
Culture activity in milk (LAB-milk) was measured the same day as the cultures were frozen and the activity was followed periodically up to 13 days.
Experimental details were as described in Example 10, with the exception that the activity was monitored for an extended period of time.

[4] = tested on: liquid lactic acid-bacterial starter culture concentrates; conditions: 3% Na-formate; cited from earlier work

SMILES | effect on activity/stability of frozen culture [1] | effectiveness as cryoprotective agent (bacterial cultures) | effect on stability of freeze-dried culture ([2]; 2 months of storage at −50° C) | further results
Nc1ncnc2c1ncn2[C@@H]1O[C@H](COP(=O)(O)O)[C@@H](O)[C@H]1O [AMP, adenosine-5′-monophosphate] | harmful to the activity of the culture | but not AMP is effective as a cryoprotective agent | – | –
Nc1ccn([C@@H]2O[C@H](COP(=O)(O)O)[C@@H](O)[C@H]2O)c(=O)n1 [CMP, cytidine-5′-monophosphate] | – | – | preferred | –
Nc1nc2c(ncn2[C@@H]2O[C@H](COP(=O)(O)O)[C@@H](O)[C@H]2O)c(=O)[nH]1 [GMP, guanosine-5′-monophosphate] | – | – | – | reduction in stability of culture without additive relative to culture stabilized by additive [3]: 0,31 pH units; loss of acidification activity of culture without additive [3]: 50%; ranking as cryoprotective during prolonged storage [3]: better that IMP
OC[C@H]1O[C@@H](n2cnc3c(O)ncnc32)[C@H](O)[C@@H]1O [Inosine, inosine] | – | very effective as a cryoprotective agent | – | reduction in stability of culture without additive relative to culture stabilized by additive [3]: 0.41 pH units; loss of acidification activity of culture without additive [3]: 60%; ranking as cryoprotective during prolonged storage [3]: better cryoprotective of F-DVS™ FI-Da N than GMP; effect on stability of freeze-dried culture ([2]; one day of storage at −50° C): highly efficient to ensure stability of the culture
O=C[O-].[Na+] [Na-formate] | detrimental for frozen cultures; also recorded: detrimental to the activity of frozen cultures; also recorded: decrease the storage stability of frozen lactic acid bacterial starter culture | – | – | effect on storage stability of liquid starter culture concentrates [4]: effective to increase the storage stability of liquid lactic acid-bacterial starter culture concentrates
O=c1ccn([C@@H]2O[C@H](COP(=O)(O)O)[C@@H](O)[C@H]2O)c(=O)[nH]1 [UMP, uranosine-5′-monophosphate] | – | – | preferred | –
Nc1ncnc2c1ncn2[C@@H]1O[C@H](CO)[C@@H](O)[C@H]1O [adenosine, reference compound] | harmful to the activity of the culture | appears to decrease the stability of bacterial cultures | harmful to the culture | effect on stability of freeze-dried culture ([2]; one day of storage at −50° C): highly efficient to ensure stability of the culture

Source: patent publication US9289003B2, “Use of compounds involved in biosynthesis of nucleic acids as cryoprotective agents” (CHR. HANSEN A/S, priority 2003, dated 2016)
